In patent US9895357B2, “Compositions, methods and kits for reducing lipid levels” (NuSirt Sciences, Inc., priority 2013, dated 2018):

Key:
[1] = test system: AMPK; conditions: 0.5 mM for leucine and 5 μM for HMB; previously shown; cited from earlier work
[2] = test system: LDL receptor knockout (LDLRKO) mice; experiment: Example 7: aortic macrophage infiltration (CD68 positive area) in LDLRKO mice; format: in vivo; conditions: eight weeks
Experimental: (§1) The mice were provided free access to an atherogenic western diet (WD) containing 0.21% cholesterol (by weight) and 40% calories from fat and water for 4 weeks prior to treatment. […] The treatments were administered for eight weeks continuously.
To assess macrophage infiltration, Sections of aortic sinus were immuno-stained with rat monoclonal antibody against macrophage-specific CD68 (Clone FA11, 1:75, AbD Serotec, Raleigh, N.C.) followed by staining with alkaline phosphatase-conjugated mouse anti-rat (for CD68, 1:50) secondary antibodies (Jackson ImmunoResearch laboratories, West Grove, Pa.). Control slides contain no primary antibody. The CD68-positive areas were analyzed using Image-Pro Plus software (Media Cybemetics, Bethesda, Md.).

[3] = test system: C. elegans; experiment: Lifespan in C. elegans; format: in vivo, Caenorhabditis elegans; conditions: leucine 0.5 mM, nicotinic acid 10 nM; basal conditions
Experimental: Eggs were hatched on a starved plate overnight. […] To study lifespan, 50 young adult worms were placed on NGM agar plates seeded with E. coli strain OP-50 (=day 1 of study). All treatments were added with the indicated concentrations to E. coli the agar plates. […] The worms were maintained at 20° C. throughout the duration of the study. Worms were transferred to new plates daily to eliminate progeny. […] The study was continued until the last animal was dead. Data were analyzed via Kaplan-Meier survival curves using Prism 6 (GraphPad Software) and statistical significance was determined by the Log-rank (Mantel-Cox) test.

[4] = test system: LDL receptor knockout (LDLRKO) mice; experiment: Example 7: atherosclerotic lesion area and Oil Red O positive area in LDLRKO mice; format: in vivo; conditions: eight weeks
Experimental: as §1
To assess atherosclerosis, the circulatory system was perfused following euthanasia with phosphate-buffered saline (PBS) before removing the heart and aorta. The upper one-third of the heart was dissected and embedded in Optimal Cutting Temperature Compound (Sakura Tissue-Tek, Torrance, Calif.), frozen, and stored at −80° C. Blocks were serially cut at 8 μm intervals and stained with hematoxylin and 0.5% Oil Red O (Sigma-Aldrich) to evaluate aortic sinus atherosclerotic intimal area. Atherosclerotic lesion area and Oil Red O positive area were quantified using Image-Pro Plus software (Media Cybemetics, Bethesda, Md.). Whole aorta (from sinotubular junction to iliac bifurcate) was dissected and fixed in 10% formalin, and the adventitia was cleaned. Aortas were opened along the longitudinal axis and pinned onto black silicon elastomer (Rubber-Cal, Santa Ana, Calif.) for the quantification of atherosclerotic lesion area. The percentage of total aortic surface covered with atherosclerotic lesions was quantified by Image-Pro Plus software (Media Cybemetics, Bethesda, Md.) and used to determine the total lesion area.

[5] = test system: Sirt1; conditions: 0.5 mM for leucine and 5 μM for HMB; previously shown; cited from earlier work
[6] = test system: LDL receptor knockout (LDLRKO) mice; experiment: Example 7: plasma total cholesterol, cholesterol esters and triglycerides in LDLRKO mice on western diet; format: in vivo; conditions: four weeks
Experimental: as §1
Blood samples of the mice in all groups were obtained from tails of the mice at following four and eight weeks of administration. The serum/plasma levels of triglyceride, total cholesterol and cholesterol esters were measured. Following treatment, food was removed for four hours and the animals were euthanized.
Blood was collected into EDTA-coated tubes to analyze plasma lipid and cholesterol profiles. Plasma total cholesterol (TC, Pointe Scientific, Canton, Mich.), free cholesterol (FC, Wako, Richmond, Va.) and triglyceride (TG, Wako, Richmond, Va.) concentrations were measured using enzymatic assays according to manufacturer's instructions. Cholesterol ester (CE) was calculated as the difference between TC and FC.

[7] = oral dosing of about 3,000 mg; cited from earlier work
[8] = test system: Patients pre-diagnosed with hyperlipidemia; conditions: NA alone 3000 mg = group (e); NA 50 mg + Leu 1135 mg; groups (a)-(d) as
Experimental: Patients that are pre-diagnosed with hyperlipidemia are admitted for the randomized and double blind study. […] The treatments are administered orally twice a day, for 60 days continuously.
Blood samples of the patients in all groups are obtained from at day 0, 30 and 60 after the administration. The serum/plasma levels of triglyceride, cholesterol, LDL and HDL are measured. Cutaneous vasodilation is measured by laser-Doppler flowmeter and the discomfort level described by the patients.

[9] = test system: LDL receptor knockout (LDLRKO) mice; conditions: NA alone 10 g/kg diet = group (e); NA 250 mg + Leu 24 g/kg diet; groups (a)-(d) as
Experimental: All chemicals are purchased from Sigma.
The serum/plasma levels of triglyceride, cholesterol, LDL and HDL are measured. Cutaneous vasodilation is measured by laser-Doppler flowmeter.

[10] = test system: AMPK
Experimental: 3T3-L1 preadipocytes (American Type Culture Collection) were plated at a density of 8000 cells/cm2 (10 cm2 dish) and grown in Dulbecco's modified eagle's medium (DMEM) containing 10% fetal bovine serum (FBS), and antibiotics (growth medium) at 37° C. in 5% CO2. […] Preadipocytes were maintained in this differentiation medium for 3 days and subsequently cultured in growth medium. Cultures were re-fed every 2-3 days to allow >90% cells to reach fully differentiation before conducting chemical treatment.
Western blotting was performed with antibodies against AMPK and Phospho-AMPKα (Thr172) obtained from Cell Signaling (Danvers, Mass.). […] Total 30 μg of protein from the cell lysate was resolved on 10% Tris/HCL polyacrylamide gels (Criterion precast gel, Bio-Rad Laboratories, Hercules, Calif.), transferred to PVDF membranes, incubated in blocking buffer (3% BSA in TBS), incubated with primary antibody (P-AMPK), washed and incubated with secondary horseradish peroxidase-conjugated antibody.

[11] = test system: Sirt1
Experimental: C2C12 mouse myoblasts (American Type Culture Collection) were plated at a density of 8000 cells/cm^2 (10 cm^2 dish) and grown in Dulbecco's modified eagle's medium (DMEM) containing 10% fetal bovine serum (FBS), and antibiotics (growth medium) at 37° C. in 5% CO2. For differentiation of C2C12 cells, cells were grown to 100% confluence, transferred to differentiation medium (DMEM with 2% horse serum and 1% penicillin-streptomycin), and fed with fresh differentiation medium every day until myotubes were fully formed (3 days).
Total 35 μg of protein from the cell lysate was resolved on 10% Tris/HCL polyacrylamide gels (Criterion precast gel, Bio-Rad Laboratories, Hercules, Calif.), transferred to PVDF membranes, incubated in blocking buffer (3% BSA in TBS), incubated with primary antibody, washed and incubated with secondary horseradish peroxidase-conjugated antibody.

[12] = leucine 24 g/kg diet alone, or with nicotinic acid 50 mg/kg diet, compared with NA 1,000 mg/kg diet
[13] = leucine 24 g/kg diet alone, or with nicotinic acid 50 or 250 mg/kg diet, compared with NA 1,000 mg/kg diet

| Structure (SMILES) | therapeutic effect on these variables when administered alone [1] | effect on aortic macrophage infiltration [2, 12] | effect on lifespan [3] | effect on lesion (plaque) area [4, 12] | therapeutic effect on these variables when administered alone [5] | effect on plasma cholesterol esters [6, 13] | effect on plasma total cholesterol [6, 13] | circulating level of nicotinic acid or nicotinamide riboside [7] | cutaneous vasodilation and patient complaints [8] | decrease in aortic macrophage infiltration ([2]; nicotinic acid 1,000 mg/kg diet, % CD68 positive area) [%] | cutaneous vasodilation [9] | decrease in atherosclerotic lesion size ([4]; nicotinic acid 1,000 mg/kg diet, relative to western diet alone) [%] | decrease in plasma total cholesterol ([6]; nicotinic acid 1,000 mg/kg diet added to western diet, p<0.01) [%] | decrease in plasma cholesterol esters ([6]; nicotinic acid 1,000 mg/kg diet, CE calculated as TC minus FC, p<0.002) [%] | decrease in plasma triglycerides ([6]; nicotinic acid 1,000 mg/kg diet, p<0.01) [%] | AMPK activation (P-AMPK/AMPK) ([10]; differentiated 3T3-L1 adipocytes, 24 hours, nicotinic acid 10 nM, leucine 0.5 mM, resveratrol 200 nM) | concentrations of nicotinic acid alone found to exert no effect ([10]; dose-response study, 3T3-L1 cells) [nM] | effect on Sirt1 levels ([11]; C2C12 myotubes, 24 hours, nicotinic acid 10 nM alone or with 0.5 mM leucine) | concentrations of nicotinic acid alone found to exert no effect ([11]; dose-response study, C2C12 cells) [nM] |
| --- | --- | --- | --- | --- | --- | --- | --- | --- | --- | --- | --- | --- | --- | --- | --- | --- | --- | --- | --- |
| CC(C)C[C@H](N)C(=O)O [leucine] | no therapeutic effect | significant independent effect on reducing macrophage infiltration | no independent effect | exerted an independent effect on plaque area | no therapeutic effect | no independent effect | no independent effect | – | – | – | – | – | – | – | – | – | – | – | – |
| NC(=O)c1ccc[n+]([C@@H]2O[C@H](CO)[C@@H](O)[C@H]2O)c1 [nicotinamide riboside] | – | – | – | – | – | – | – | about 10 μM | – | – | – | – | – | – | – | – | – | – | – |
| O=C(O)c1cccnc1 [nicotinic acid] | – | – | no independent effect | – | – | – | – | about 10 μM | significant higher cutaneous vasodilation and more complaints from the patients | ~50 | significant higher cutaneous vasodilation | ~50 | 20 | 28 | 32 | no significant effect | < 100 | did not have a significant effect | < 100 |
